Patent publication US11382956B2, “Amylin analogues” (Zealand Pharma A/S, priority 2016, dated 2022)
Numbered stars: 1 amine (or outer) side, 2 acyl side, 3 side chain; on linkers, the order of the positions; unused ones are H or OH. Bridge positions count the residues as written; N and C are the ends. Square brackets hold non-standard residues; d marks the D form. Peptide text beside a SMILES is read from it. * marks the point of attachment. C20 diacid = O=C(O)CCCCCCCCCCCCCCCCCCC(=O)*; γGlu = O=C(O)[C@H](CCC(=O)[*:2])N[*:1]; Hyp = O=C(O)[C@@H]1C[C@@H](O)CN1; NMeI = CC[C@H](C)[C@H](NC)C(=O)O; Aad = N[C@@H](CCCC(=O)O)C(=O)O; Orn = NCCC[C@H](N)C(=O)O; Dab = NCC[C@H](N)C(=O)O; Dap = NC[C@H](N)C(=O)O; Sar = CNCC(=O)O

What was measured:
[1] = Effect on acute food intake and body weight in normal Sprague Dawley rats; assay type: in vivo, Sprague Dawley (SD) rats; conditions: Dose: 30 nmol/kg sc, vehicle-corrected
[2] = biological target: T1, recombinant human amylin 3 receptor (hAMYR3) (Homo sapiens, UniProt O60896+P30988); test: hAMYR3 cAMP assay (AlphaScreen) in 1321N1 cells; assay type: cell-based; conditions: cAMP formation, 45 min stimulation
T1 construct: host or cells: human astrocytoma cell line 1321N1
T1 sequence (P30988 25-474): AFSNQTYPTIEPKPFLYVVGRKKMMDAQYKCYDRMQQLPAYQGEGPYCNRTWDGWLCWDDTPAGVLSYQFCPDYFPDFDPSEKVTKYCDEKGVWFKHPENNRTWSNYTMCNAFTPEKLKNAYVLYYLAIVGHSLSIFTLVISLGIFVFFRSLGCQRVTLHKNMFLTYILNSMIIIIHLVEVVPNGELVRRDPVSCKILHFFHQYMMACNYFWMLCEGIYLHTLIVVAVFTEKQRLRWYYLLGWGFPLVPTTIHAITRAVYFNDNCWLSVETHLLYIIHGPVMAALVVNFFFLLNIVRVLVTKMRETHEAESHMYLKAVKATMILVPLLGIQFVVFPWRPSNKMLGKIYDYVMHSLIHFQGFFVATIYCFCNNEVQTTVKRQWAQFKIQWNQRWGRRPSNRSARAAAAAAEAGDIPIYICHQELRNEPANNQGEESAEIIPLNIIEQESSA
T1 sequence (O60896 24-148 partner): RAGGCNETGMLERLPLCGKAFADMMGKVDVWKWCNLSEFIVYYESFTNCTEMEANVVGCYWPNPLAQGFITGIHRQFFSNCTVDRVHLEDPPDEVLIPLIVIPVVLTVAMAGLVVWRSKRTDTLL
Method in brief: (§1)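 EC50 values come from curve fits over at least 7 peptide concentrations, with cAMP read by AlphaScreen competition after 1 h in the dark. Cells were 1321N1 lines carrying human calcitonin receptor, with RAMP3 co-expressed for AMY3, treated 45 min at room temperature in the presence of IBMX.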

[3] = Pharmacokinetic (PK) profiling in rats; conditions: male, Sprague Dawley, plasma; rat, single sc bolus 30 nmol/kg; read-out: in vivo half life t1/2 (plasma terminal elimination half-life) (converted)
Method: Sprague Dawley male rats were given a single subcutaneous (sc) bolus of each peptide to be tested, as specified below.
30 nmol/kg doses of compound were administered. Blood samples were drawn from the tail vein prior to dosing and at 24 and 96 hours after dosing. The rats were euthanized immediately after the last blood sampling by concussion and cervical dislocation.
The dosing vehicle used for each test peptide was a mannitol-containing histidine buffer (pH 7.0). Plasma samples were analyzed after precipitation with ethanol by liquid chromatography mass spectrometry (LC-MS/MS). Mean plasma concentrations were used for calculation of the pharmacokinetic parameters.
Plasma terminal elimination half-life (t1/2) was determined as In(2)/λz, where λz is the magnitude of the slope of the log linear regression of the log concentration versus time profile during the terminal phase.

[4] = Assessment of chemical stability in 40 mM buffers at 40° C. (RP-HPLC); assay type: physicochemical; conditions: 1 mg/mL
Method in brief: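 Degradation is the main-peak area-% at each time point minus that at t=0, measured by C8 reversed-phase HPLC (TFA/acetonitrile/water gradient, 220 nm). Incubation at 40° C for 3 or 14 days, 1 mg/mL peptide in 40 mM buffer at pH 4, 6 or 7.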

[5] = Assessment of physical stability: fibril formation by Thioflavin T fluorescence; assay type: physicochemical; design: key: FND = fibrillation not detected; FD = fibrillation detected; conditions: 1 mg/mL peptide
Method in brief: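 Fibrillation detected (FD) means a significant rise in ThT fluorescence over 96 hours at 40° C, read at 10 min intervals each preceded by 300 s automixing. Samples: 1 mg/mL peptide, 40 μM ThT, in 50 mM phosphate or histidine (pH 7.0) or acetate (pH 4.0), triplicate.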

[6] = biological target: T2, recombinant human calcitonin receptor (hCT-R) (Homo sapiens, UniProt P30988); test: hCT-R cAMP assay (AlphaScreen) in 1321N1 cells; assay type: cell-based; conditions: cAMP formation, 45 min stimulation
T2 construct: host or cells: human astrocytoma cell line 1321N1
T2 sequence (P30988 25-474): T1 sequence (P30988 25-474)
Method in brief: as §1

[7] = Chemical stability, alternative analysis in MilliQ water with pH adjusted, 40° C. (RP-HPLC); assay type: physicochemical; conditions: for % degradation after 8 days at 40° C. pH4: pH adjusted to 4.0, 8 days; for % degradation after 8 days at 40° C. pH7.5: pH adjusted to 7.5, 8 days; for % degradation after 8 days at 40° C. pH9: pH adjusted to 9.0, 8 days
Method: In an alternative analysis, peptides were dissolved in MilliQ water and pH adjusted to 4.0, 7.5 or 9.0. Samples were placed in glass vials and incubated at 40° C. The samples were analyzed by RP-HPLC on a C8 column with gradient elution using a trifluoroacetic acid/acetonitrile/water eluent system. The area-percentage (area-%) of the main peak was determined by UV spectroscopy at 220 nm at each sampling time point.
The % degradation was calculated by subtracting the […].
The results of the chemical stability assessment after 8 days of incubation time are summarized as % degradation in Table 3 (below).

| Structure (SMILES) | Body weight reduction in % at 48 h [1] [%] | Food intake reduction in % at 48 h [1] [%] | EC50 [2] [nM] | half-life [3] [h] | % degradation after 72 h at 40° C. pH4 acetate ([4]; acetate buffer pH 4, 72 h) [%] | % degradation after 72 h at 40° C. pH6 phosphate ([4]; phosphate buffer pH 6, 72 h) [%] | % degradation after 14 days at 40° C. pH6 phosphate ([4]; phosphate buffer pH 6, 14 days) [%] | % degradation after 72 h at 40° C. pH7 phosphate ([4]; phosphate buffer pH 7, 72 h) [%] | Fibrillation (in buffer) pH4 acetate ([5]; 50 mM acetate buffer pH 4.0, 96 hours at 40° C.) | Fibrillation (in buffer) pH7 histidine ([5]; 50 mM histidine buffer pH 7.0, 96 hours at 40° C.) | Fibrillation (in buffer) pH7 phosphate ([5]; 50 mM phosphate buffer pH 7.0, 96 hours at 40° C.) | EC50 [6] [nM] | % degradation after 8 days at 40° C. pH4 [7] [%] | % degradation after 8 days at 40° C. pH7.5 [7] [%] | % degradation after 8 days at 40° C. pH9 [7] [%] |
| --- | --- | --- | --- | --- | --- | --- | --- | --- | --- | --- | --- | --- | --- | --- | --- |
| CC[C@H](C)[C@@H](C(=O)N[C@@H](CC(C)C)C(=O)N[C@@H](CO)C(=O)N[C@@H](CO)C(=O)N[C@H](C(=O)N[C@@H](CCC(=O)O)C(=O)N[C@H](C(=O)NCC(=O)N[C@@H](CO)C(=O)N[C@@H](CC(N)=O)C(=O)N[C@H](C(=O)N1C[C@H](O)C[C@H]1C(N)=O)[C@@H](C)O)C(C)C)[C@@H](C)O)N(C)C(=O)[C@H](C)NC(=O)CN(C)C(=O)[C@H](Cc1ccccc1)NC(=O)[C@H](CO)NC(=O)[C@H](CO)NC(=O)[C@H](CCCNC(=N)N)NC(=O)[C@H](CCC(N)=O)NC(=O)[C@H](CC(C)C)NC(=O)[C@H](Cc1ccccc1)NC(=O)[C@H](Cc1c[nH]cn1)NC(=O)[C@H](C)NC(=O)[C@H](CC(C)C)NC(=O)[C@H](CCCNC(=N)N)NC(=O)[C@H](CCC(=O)O)NC(=O)[C@@H](NC(=O)[C@H](C)NC(=O)[C@@H]1CCCNC(=O)C[C@H](NC(=O)[C@H](CCCNC(=N)N)NC(=O)CC[C@H](NC(=O)CCCCCCCCCCCCCCCCCCC(=O)O)C(=O)O)C(=O)NCC(=O)N[C@@H]([C@@H](C)O)C(=O)N[C@@H](C)C(=O)N[C@@H]([C@@H](C)O)C(=O)N1)[C@@H](C)O [Compound 3, [19CD]-isoGlu-RD()GTAT-Orn()-ATERLAHFLQRSSF-Gly(Me)-A-Ile(Me)-LSSTEVGSNT-Hyp-NH2] ({C20 diacid-γGlu}-RDGTAT[Orn]ATERLAHFLQRSSF[Sar]A[NMeI]LSSTEVGSNT[Hyp]-NH2; lactam 2-7) | 5.6 | 34 | 0.035 | 21.3 | <1 | 3.2 | 1.0 | 1.2 | FND | FND | FD | 0.081 |  |  |  |
| CC[C@H](C)[C@@H](C(=O)N[C@@H](CC(C)C)C(=O)N[C@@H](CO)C(=O)N[C@@H](CO)C(=O)N[C@H](C(=O)N[C@@H](CCC(=O)O)C(=O)N[C@H](C(=O)NCC(=O)N[C@@H](CO)C(=O)N[C@@H](CC(N)=O)C(=O)N[C@H](C(=O)N1C[C@H](O)C[C@H]1C(N)=O)[C@@H](C)O)C(C)C)[C@@H](C)O)N(C)C(=O)[C@H](C)NC(=O)CN(C)C(=O)[C@H](Cc1ccccc1)NC(=O)[C@H](CO)NC(=O)[C@H](CO)NC(=O)[C@H](CCCNC(=N)N)NC(=O)[C@H](CCC(N)=O)NC(=O)[C@H](CC(C)C)NC(=O)[C@H](Cc1ccccc1)NC(=O)[C@H](Cc1c[nH]cn1)NC(=O)[C@H](C)NC(=O)[C@H](CC(C)C)NC(=O)[C@H](CCCNC(=N)N)NC(=O)[C@H](CCC(=O)O)NC(=O)[C@@H](NC(=O)[C@H](C)NC(=O)[C@@H]1CCC(=O)NCC[C@H](NC(=O)[C@H](CCCNC(=N)N)NC(=O)CC[C@H](NC(=O)CCCCCCCCCCCCCCCCCCC(=O)O)C(=O)O)C(=O)NCC(=O)N[C@@H]([C@@H](C)O)C(=O)N[C@@H](C)C(=O)N[C@@H]([C@@H](C)O)C(=O)N1)[C@@H](C)O [Compound 49, [19CD]-isoGlu-R-Dab()-GTATE()ATERLAHFLQRSSF-Gly(Me)-A-Ile(Me)-LSSTEVGSNT-Hyp-NH2] ({C20 diacid-γGlu}-R[Dab]GTATEATERLAHFLQRSSF[Sar]A[NMeI]LSSTEVGSNT[Hyp]-NH2; lactam 2-7) |  |  | 0.442 |  |  |  |  |  |  |  |  | 1.04 | 1.7 | 2.1 | 3.0 |
| CC[C@H](C)[C@@H](C(=O)N[C@@H](CC(C)C)C(=O)N[C@@H](CO)C(=O)N[C@@H](CO)C(=O)N[C@H](C(=O)N[C@@H](CCC(=O)O)C(=O)N[C@H](C(=O)NCC(=O)N[C@@H](CO)C(=O)N[C@@H](CC(N)=O)C(=O)N[C@H](C(=O)N1C[C@H](O)C[C@H]1C(N)=O)[C@@H](C)O)C(C)C)[C@@H](C)O)N(C)C(=O)[C@H](C)NC(=O)CN(C)C(=O)[C@H](Cc1ccccc1)NC(=O)[C@H](CO)NC(=O)[C@H](CO)NC(=O)[C@H](CCCNC(=N)N)NC(=O)[C@H](CCC(N)=O)NC(=O)[C@H](CC(C)C)NC(=O)[C@H](Cc1ccccc1)NC(=O)[C@H](Cc1c[nH]cn1)NC(=O)[C@H](C)NC(=O)[C@H](CC(C)C)NC(=O)[C@H](CCCNC(=N)N)NC(=O)[C@H](CCC(=O)O)NC(=O)[C@@H](NC(=O)[C@H](C)NC(=O)[C@@H]1CCCC(=O)NC[C@H](NC(=O)[C@H](CCCNC(=N)N)NC(=O)CC[C@H](NC(=O)CCCCCCCCCCCCCCCCCCC(=O)O)C(=O)O)C(=O)NCC(=O)N[C@@H]([C@@H](C)O)C(=O)N[C@@H](C)C(=O)N[C@@H]([C@@H](C)O)C(=O)N1)[C@@H](C)O [Compound 48, [19CD]-isoGlu-R-Dap()-GTAT-Aad()-ATERLAHFLQRSSF-Gly(Me)-A-Ile(Me)-LSSTEVGSNT-Hyp-NH2] ({C20 diacid-γGlu}-R[Dap]GTAT[Aad]ATERLAHFLQRSSF[Sar]A[NMeI]LSSTEVGSNT[Hyp]-NH2; lactam 2-7) |  |  | 0.02 |  |  |  |  |  |  |  |  | 0.107 | 1.8 | 2.3 | 2.5 |
| CC[C@H](C)[C@@H](C(=O)N[C@@H](CC(C)C)C(=O)N[C@@H](CO)C(=O)N[C@@H](CO)C(=O)N[C@H](C(=O)N[C@@H](CCC(=O)O)C(=O)N[C@H](C(=O)NCC(=O)N[C@@H](CO)C(=O)N[C@@H](CC(N)=O)C(=O)N[C@H](C(=O)N1C[C@H](O)C[C@H]1C(N)=O)[C@@H](C)O)C(C)C)[C@@H](C)O)N(C)C(=O)[C@H](C)NC(=O)CN(C)C(=O)[C@H](Cc1ccccc1)NC(=O)[C@H](CO)NC(=O)[C@H](CO)NC(=O)[C@H](CCCNC(=N)N)NC(=O)[C@H](CCC(N)=O)NC(=O)[C@H](CC(C)C)NC(=O)[C@H](Cc1ccccc1)NC(=O)[C@H](Cc1c[nH]cn1)NC(=O)[C@H](C)NC(=O)[C@H](CC(C)C)NC(=O)[C@H](CCCNC(=N)N)NC(=O)[C@H](CCC(=O)O)NC(=O)[C@@H](NC(=O)[C@H](C)NC(=O)[C@@H]1CCNC(=O)CC[C@H](NC(=O)[C@H](CCCNC(=N)N)NC(=O)CC[C@H](NC(=O)CCCCCCCCCCCCCCCCCCC(=O)O)C(=O)O)C(=O)NCC(=O)N[C@@H]([C@@H](C)O)C(=O)N[C@@H](C)C(=O)N[C@@H]([C@@H](C)O)C(=O)N1)[C@@H](C)O [Compound 51, [19CD]-isoGlu-RE()GTAT-Dab()-ATERLAHFLQRSSF-Gly(Me)-A-Ile(Me)-LSSTEVGSNT-Hyp-NH2] ({C20 diacid-γGlu}-REGTAT[Dab]ATERLAHFLQRSSF[Sar]A[NMeI]LSSTEVGSNT[Hyp]-NH2; lactam 2-7) |  |  | 0.306 |  |  |  |  |  |  |  |  | 0.861 | 3.1 | 4.6 | 4.6 |
